Data taken from patent US20250368628A1, “METHODS AND COMPOUNDS FOR MODULATING INHERITED GENETIC DISEASES” (Design Therapeutics, Inc., priority 2022, published 2025).

Legend:
[1] = tested on: Myotonic Dystrophy 1 affected patient fibroblasts (Coriel GM04602; 1600 CTG repeats); assay: DM1 foci reduction assay (EC50 assay; CAG10-Cy3 FISH, foci per nucleus); assay type: cell-based; conditions: Homo sapiens, Fibroblast; DM1 patient fibroblasts, 48 h treatment, foci per nucleus; read-out: DM1 EC50, 48 h
In short: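 GM04602 DM1 patient fibroblasts (1600 CTG repeats) seeded 24 h, then treated 48 h at 37 °C with an 8-point 1:3 dose series from 3 μM. Cells PFA-fixed, ethanol-permeabilized and hybridized overnight with 5 nM CAG10-Cy3 probe, DAPI counterstained. Imaged at 20×, 4 fields per well, as average foci per nucleus.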

F35T cells = assay: Foci reduction in FECD (CAG10-Cy3 FISH, foci per nucleus); assay type: cell-based; conditions: F35T cells, 48 h treatment, foci per nucleus; read-out: FECD EC50, 48 h
Experimental: F35T cells were cultured in media containing Opti-MEM (ThermoFisher) supplemented with 8% FBS, 20 μg/mL ascorbic acid, […] CaCl2, 0.08% chondroitin sulfate, 1×Pen/Strep, 100 μg/mL bovine pituitary extract, 5 ng/mL epidermal growth factor, and 20 ng/mL nerve growth factor. Throughout the culture, cells were maintained in an incubator at 37° C. and 5% CO2. Media was refreshed every 48 hours. Once cells reached adequate confluency, they were harvested and seeded in 96 well plates with a density of 5000 cells per well in 200 μL of the supplemented Opti-MEM media. Cells were returned to the incubator and left to settle for 24 hours at 37° C. and 5% CO2. Cells were then treated in 8-point dose response with compounds or negative controls and incubated for 48 hours at 37° C. and 5% CO2. After treatment, cells were fixed with 4% PFA for 20 minutes at room temperature, followed by permeabilization with 70% ethanol. Cells were incubated at −20° C. for a minimum of 1 hour and maximum of 72 hours, after which the ethanol was removed, and cells were washed with PBS. Cells were rehydrated with 30% formamide and 2×SSC buffer for 10 minutes at room temperature. Cells were then incubated overnight at 37° C. in the hybridization solution containing 30% formamide, 2×SSC, 55 mg/mL dextran sulfate, 2.75 mg/mL bovine serum albumin, 0.2 μg/mL Herring sperm DNA, 1% vanadyl-ribonucleoside complex, and 0.05% 10 μM CAG10-Cy3 probe. Cells were washed twice with 30% formamide in 2×SSC, incubating the cells while shaking with the second wash at 37° C. and 200 rpm for 60 minutes. Cells were stained with 5 mg/mL DAPI 1:1000 in PBS, incubating at room temperature for 5 minutes. Cells were then washed with PBS and sealed with adhesive foil, with each well containing a final volume of 150 μL PBS. Cells were imaged on a Cytation 5 and analyzed on a foci per nucleus basis.

Compound	EC50 [1] [nM]	EC50 (F35T cells) [nM]
Cn1cc(NC(=O)c2nc(NC(=O)CCNC(=O)c3cc(NC(=O)c4nccn4C)cn3C)cn2C)cc1C(=O)NCCCC(=O)Nc1cn(C)c(C(=O)NCCC(=O)Nc2cc(C(=O)Nc3cn(C)c(C(=O)NCCC(=O)N4CCN(C5CCN(C(=O)OCc6ccccc6)CC5)CC4)n3)n(C)c2)n1 [Compound B-32]	< 100	< 100
CN(C)CCCNC(=O)CCNC(=O)c1nc(NC(=O)c2cc(NC(=O)CCNC(=O)c3nc(NC(=O)CCCNC(=O)c4cc(NC(=O)c5nc(NC(=O)CCNC(=O)c6cc(NC(=O)c7nccn7C)cn6C)cn5C)cn4C)cn3C)cn2C)cn1C [Compound B-33]	100 to 500	100 to 500
CN(CCCNC(=O)CCNC(=O)c1nc(NC(=O)c2cc(NC(=O)CCNC(=O)c3nc(NC(=O)CCCNC(=O)c4cc(NC(=O)c5nc(NC(=O)CCNC(=O)c6cc(NC(=O)c7nccn7C)cn6C)cn5C)cn4C)cn3C)cn2C)cn1C)CCCNC(=O)c1cccc(C(=O)O)c1 [Compound B-35]	500 to 1000	100 to 500
CN1CCN(CCCNC(=O)CCNC(=O)c2nc(NC(=O)c3cc(NC(=O)CCNC(=O)c4nc(NC(=O)CCCNC(=O)c5cc(NC(=O)c6nc(NC(=O)CCNC(=O)c7cc(NC(=O)c8nccn8C)cn7C)cn6C)cn5C)cn4C)cn3C)cn2C)CC1 [Compound B-36]	100 to 500	100 to 500
Cn1cc(NC(=O)c2nc(NC(=O)CCNC(=O)c3cc(NC(=O)c4nccn4C)cn3C)cn2C)cc1C(=O)NCCCC(=O)Nc1cn(C)c(C(=O)NCCC(=O)Nc2cc(C(=O)Nc3cn(C)c(C(=O)NCCC(=O)NCCCN4CCOCC4)n3)n(C)c2)n1 [Compound B-37]	100 to 500	100 to 500
Cn1cc(NC(=O)c2nc(NC(=O)CCNC(=O)c3cc(NC(=O)c4nccn4C)cn3C)cn2C)cc1C(=O)NCCCC(=O)Nc1cn(C)c(C(=O)NCCC(=O)Nc2cc(C(=O)Nc3cn(C)c(C(=O)NCCC(=O)NCCCN4CCCCC4)n3)n(C)c2)n1 [Compound B-38]	100 to 500	> 1000
CCCCCNC(=O)CCNC(=O)c1nc(NC(=O)c2cc(NC(=O)CCNC(=O)c3nc(NC(=O)CCCNC(=O)c4cc(NC(=O)c5nc(NC(=O)CCNC(=O)c6cc(NC(=O)c7nccn7C)cn6C)cn5C)cn4C)cn3C)cn2C)cn1C [Compound B-39]	< 100	< 100
CN(C)CCOCCNC(=O)CCNC(=O)c1nc(NC(=O)c2cc(NC(=O)CCNC(=O)c3nc(NC(=O)CCCNC(=O)c4cc(NC(=O)c5nc(NC(=O)CCNC(=O)c6cc(NC(=O)c7nccn7C)cn6C)cn5C)cn4C)cn3C)cn2C)cn1C [Compound B-42]	100 to 500	100 to 500
CCCNC(=O)c1nc(NC(=O)c2cc(NC(=O)CCNC(=O)c3nc(NC(=O)CCCNC(=O)c4cc(NC(=O)c5nc(NC(=O)CCNC(=O)c6cc(NC(=O)c7nccn7C)cn6C)cn5C)cn4C)cn3C)cn2C)cn1C [Compound B-43]	< 100	< 100
CCCNC(=O)c1nc(NC(=O)CCNC(=O)c2cc(NC(=O)c3nc(NC(=O)CCCNC(=O)c4cc(NC(=O)c5nc(NC(=O)CCNC(=O)c6cc(NC(=O)c7nccn7C)cn6C)cn5C)cn4C)cn3C)cn2C)cn1C [Compound B-44]	> 1000	> 1000
Cn1cc(NC(=O)c2nc(NC(=O)CCNC(=O)c3cc(NC(=O)c4nccn4C)cn3C)cn2C)cc1C(=O)NCCCC(=O)Nc1cn(C)c(C(=O)NCCC(=O)Nc2cc(C(=O)Nc3cn(C)c(C(=O)NCCC(=O)NCCCCN=[N+]=[N-])n3)n(C)c2)n1 [Compound B-45]	< 100	500 to 1000
Cn1cc(NC(=O)c2nc(NC(=O)CCNC(=O)c3cc(NC(=O)c4nccn4C)cn3C)cn2C)cc1C(=O)NCCCC(=O)Nc1cn(C)c(C(=O)NCCC(=O)Nc2cc(C(=O)Nc3cn(C)c(C(=O)NCCC(=O)NC(CO)(CO)CO)n3)n(C)c2)n1 [Compound B-46]	500 to 1000	100 to 500
Cn1cc(NC(=O)c2nc(NC(=O)CCNC(=O)c3cc(NC(=O)c4nccn4C)cn3C)cn2C)cc1C(=O)NCCCC(=O)Nc1cn(C)c(C(=O)NCCC(=O)Nc2cc(C(=O)Nc3cn(C)c(C(=O)NCCC(=O)NC(C)(C)C)n3)n(C)c2)n1 [Compound B-47]	100 to 500	100 to 500
Cn1cc(NC(=O)c2nc(NC(=O)CCNC(=O)c3cc(NC(=O)c4nccn4C)cn3C)cn2C)cc1C(=O)NCCCC(=O)Nc1cn(C)c(C(=O)NCCC(=O)Nc2cc(C(=O)Nc3cn(C)c(C(=O)NCCC(=O)N4CCOCC4)n3)n(C)c2)n1 [Compound B-48]	100 to 500	100 to 500
Cn1cc(NC(=O)c2nc(NC(=O)CCNC(=O)c3cc(NC(=O)c4nccn4C)cn3C)cn2C)cc1C(=O)NCCCC(=O)Nc1cn(C)c(C(=O)NCCC(=O)Nc2cc(C(=O)Nc3cn(C)c(C(=O)NCCC(=O)N4CCNCC4)n3)n(C)c2)n1 [Compound B-49]	100 to 500	100 to 500
CCCN(CCC)C(=O)CCNC(=O)c1nc(NC(=O)c2cc(NC(=O)CCNC(=O)c3nc(NC(=O)CCCNC(=O)c4cc(NC(=O)c5nc(NC(=O)CCNC(=O)c6cc(NC(=O)c7nccn7C)cn6C)cn5C)cn4C)cn3C)cn2C)cn1C [Compound B-50]	100 to 500	< 100
Cn1cc(NC(=O)c2nc(NC(=O)CCNC(=O)c3cc(NC(=O)c4nccn4C)cn3C)cn2C)cc1C(=O)NCCCC(=O)Nc1cn(C)c(C(=O)NCCC(=O)Nc2cc(C(=O)Nc3cn(C)c(C(=O)NCCC(=O)NCCCO)n3)n(C)c2)n1 [Compound B-52]	< 100	< 100
CCCNC(=O)CCNC(=O)c1nc(NC(=O)c2cc(NC(=O)CCNC(=O)c3nc(NC(=O)CCCNC(=O)c4cc(NC(=O)c5nc(NC(=O)CCNC(=O)c6cc(NC(=O)c7nccn7C)cn6C)cn5C)cn4C)cn3C)cn2CCCCCCN)cn1C [Compound B-57]	100 to 500	500 to 1000
CCCNC(=O)CCNC(=O)c1nc(NC(=O)c2cc(NC(=O)CCNC(=O)c3nc(NC(=O)CCCNC(=O)c4cc(NC(=O)c5nc(NC(=O)CCNC(=O)c6cc(NC(=O)c7nccn7C)cn6C)cn5C)cn4CCCCCCN=[N+]=[N-])cn3C)cn2C)cn1C [Compound B-58]	< 100	< 100
CCCNC(=O)CCNC(=O)c1nc(NC(=O)c2cc(NC(=O)CCNC(=O)c3nc(NC(=O)CCCNC(=O)c4cc(NC(=O)c5nc(NC(=O)CCNC(=O)c6cc(NC(=O)c7nccn7C)cn6C)cn5C)cn4CCCCCCN)cn3C)cn2C)cn1C [Compound B-59]	100 to 500	100 to 500
CCCNC(=O)CCNC(=O)c1nc(NC(=O)c2cc(NC(=O)CCNC(=O)c3nc(NC(=O)CCCNC(=O)c4cc(NC(=O)c5nc(NC(=O)CCNC(=O)c6cc(NC(=O)c7nccn7C)cn6C)cn5C)cn4C)cn3C)c[nH]2)cn1C [Compound B-63]	100 to 500	100 to 500
Cn1cc(NC(=O)c2nc(NC(=O)CCNC(=O)c3cc(NC(=O)c4nccn4C)cn3C)cn2C)cc1C(=O)NCCCC(=O)Nc1cn(C)c(C(=O)NCCC(=O)Nc2cc(C(=O)Nc3cn(C)c(C(=O)NCCC(=O)N4CC(c5cnc(CNC(=O)OCc6ccccc6)[nH]5)C4)n3)n(C)c2)n1 [Compound B-68]	100 to 500	100 to 500
CN(C)Cc1ncc(C2CN(C(=O)CCNC(=O)c3nc(NC(=O)c4cc(NC(=O)CCNC(=O)c5nc(NC(=O)CCCNC(=O)c6cc(NC(=O)c7nc(NC(=O)CCNC(=O)c8cc(NC(=O)c9nccn9C)cn8C)cn7C)cn6C)cn5C)cn4C)cn3C)C2)[nH]1 [Compound B-69]	100 to 500	100 to 500
Cn1cc(NC(=O)c2nc(NC(=O)CCNC(=O)c3cc(NC(=O)c4nccn4C)cn3C)cn2C)cc1C(=O)NCCCC(=O)Nc1cn(C)c(C(=O)NCCC(=O)Nc2cc(C(=O)Nc3cn(C)c(C(=O)NCCC(=O)N4CC(c5cnc(CNC(=O)c6ccc(C(C)(C)C)cc6)[nH]5)C4)n3)n(C)c2)n1 [Compound B-71]	100 to 500	100 to 500
CN(C)C(=NCCCNC(=O)CCNC(=O)c1nc(NC(=O)c2cc(NC(=O)CCNC(=O)c3nc(NC(=O)CCCNC(=O)c4cc(NC(=O)c5nc(NC(=O)CCNC(=O)c6cc(NC(=O)c7nccn7C)cn6C)cn5C)cn4C)cn3C)cn2C)cn1C)N(C)C [Compound B-72]	500 to 1000	> 1000
Cn1cc(NC(=O)c2nc(NC(=O)CCNC(=O)c3cc(NC(=O)c4nccn4C)cn3C)cn2C)cc1C(=O)NCCCC(=O)Nc1cn(C)c(C(=O)NCCC(=O)Nc2cc(C(=O)Nc3cn(C)c(C(=O)NCCC(=O)OCC(N)(CO)CO)n3)n(C)c2)n1 [Compound B-73]	500 to 1000	> 1000
CCCNC(=O)CCNC(=O)c1nc(NC(=O)CCNC(=O)c2cc(NC(=O)c3nc(NC(=O)CCCNC(=O)c4cc(NC(=O)c5nc(NC(=O)CCNC(=O)c6cc(NC(C)c7nccn7C)cn6C)cn5C)cn4C)cn3C)cn2C)cn1C (stereo not drawn) [Compound B-74]	> 1000	500 to 1000
